Data published in patent EP1914304A1 (priority 1998, dated 1999).
pIC50: −log10 of the molar value.

Experiments:
[1] = system: E. coli KY895 harboring HSV-1 TK mutant F1611; assay: Colony formation on acyclovir or AZT plates (secondary screen); format: cell-based; conditions: TK selection plates, 1 µg/mL thymidine + 1µg/mL acyclovir or 0.05 µg/mL AZT, 37°C, 16-24 hours
Experimental: (§1) […]. Mutant cultures were also spread onto duplicate TK selection and LB + carb^50 plates. One set of TK selection plates and LB + carb^50 plates were incubated at 42°C. All other plates were incubated at 37°C. After 16-24 hours the plates were scored.

[2] = system: E. coli KY895 harboring HSV-1 TK mutant R163P/H164Q; assay: as above; format: cell-based; conditions: TK selection plates, 1 µg/mL thymidine + 1µg/mL acyclovir or 0.05 µg/mL AZT, 37°C, 16-24 hours
Experimental: as §1

[3] = system: E. coli KY895 harboring HSV-1 TK mutant F1611/R163H; assay: as above; format: cell-based; set-up: key: (++) indicates that the same number of colonies were observed as compared to control plates; (+) indicates that fewer (<20% those observed with pMCC) and generally smaller (~50°,% smaller diameter) colonies were observed as compared to control plates; (-) indicates that no colonies were observed; conditions: TK selection plates, 1 µg/mL thymidine + 1µg/mL acyclovir or 0.05 µg/mL AZT, 37°C, 16-24 hours
Experimental: as §1

[4] = system: E. coli KY895 harboring HSV-1 TK mutant P155A/F161V; assay: as above; format: cell-based; set-up: key: (++) indicates that the same number of colonies were observed as compared to control plates; (+) indicates that fewer (<20% those observed with pMCC) and generally smaller (~50°,% smaller diameter) colonies were observed as compared to control plates; (-) indicates that no colonies were observed; conditions: TK selection plates, 1 µg/mL thymidine + 1µg/mL acyclovir or 0.05 µg/mL AZT, 37°C, 16-24 hours
Experimental: as §1

[5] = system: E. coli KY895 harboring HSV-1 TK mutant F161C; assay: as above; format: cell-based; set-up: key: (++) indicates that the same number of colonies were observed as compared to control plates; (+) indicates that fewer (<20% those observed with pMCC) and generally smaller (~50°,% smaller diameter) colonies were observed as compared to control plates; (-) indicates that no colonies were observed; conditions: TK selection plates, 1 µg/mL thymidine + 1µg/mL acyclovir or 0.05 µg/mL AZT, 37°C, 16-24 hours
Experimental: as §1

[6] = system: E. coli KY895 harboring HSV-1 TK mutant F161L; assay: as above; format: cell-based; set-up: key: (++) indicates that the same number of colonies were observed as compared to control plates; (+) indicates that fewer (<20% those observed with pMCC) and generally smaller (~50°,% smaller diameter) colonies were observed as compared to control plates; (-) indicates that no colonies were observed; conditions: TK selection plates, 1 µg/mL thymidine + 1µg/mL acyclovir or 0.05 µg/mL AZT, 37°C, 16-24 hours
Experimental: as §1

[7] = system: E. coli KY895 harboring pMCC (wild-type HSV-1 TK); assay: as above; format: cell-based; set-up: key: (++) indicates that the same number of colonies were observed as compared to control plates; (+) indicates that fewer (<20% those observed with pMCC) and generally smaller (~50°,% smaller diameter) colonies were observed as compared to control plates; (-) indicates that no colonies were observed; conditions: TK selection plates, 1 µg/mL thymidine + 1µg/mL acyclovir or 0.05 µg/mL AZT, 37°C, 16-24 hours
Experimental: as §1

[8] = biological target: HSV-1 thymidine kinase mutant TKF 105 (Leu-170 to Ile) (Human herpesvirus 1, UniProt P06478, L170I); assay: Kinetics of AZT phosphorylation by purified TK (preliminary experiments); format: biochemical, Herpes Simplex Virus Type 1; conditions: preliminary experiments with purified TKF 105 TK
Experimental: Briefly, crude bacterial extract was passed three times through a 7-mL bed-volume affinity column. The column was then washed sequentially using 30 mL each of buffer A [0.1 M Tris HCl, pH 7.5/5 mM dithiothreitol (DTT)/10% glycerol], buffer B (0.1M Tris-HCl, pH 7.5/0.5 M KCl/5 mM DTT/10% glycerol), and buffer A. TK was eluted using a 60-mL linear gradient of 0-600 µM dT in buffer C (0.3 M Tris HCl, pH 7.4/50 mM KCl/10% glycerol). Active fractions were pooled and dialyzed against three changes each of 2 liters of 50 mM Tris-HCl, pH 7.4/5 mM DTT/10% glycerol. Except in the final dialysis, all the above buffers contained 50 µg/mL of aprotinin and 2 µg/mL each of pepstatin and leupeptin.
Secondly, the kinetics of AZT phosphorylation by the two mutants was determined. Briefly, reactions were carried out in a final volume of 100 µl containing 50 mM Tris-HCl (pH 7.5), 5 mM ATP. […] The amount of radioactivity adsorbed to the disc was determined by scintillation spectroscopy. Km and Vmax values were determined by using the Cleland SUBIN program (Cleland, Methods Enz. 63:103-138, 1979). The values for kcat were calculated using the equation Vmax = kcat[E]0, where [E]o = total enzyme concentration. […]

[9] = system: BHK tk- cells transfected with pREP8D7:dualGFP expressing wild-type TK; assay: ACV kill curves of transfectant pools; format: cell-based, baby hamster; conditions: Mesocricetus auratus, Table VII
Source text: (§2) The seven mutants were subcloned into the mammalian expression vector, pREP8D7:dualGFP. This vector contains a constitutive metallothionin promoter, which drives the expression of green flourescent protein (GFP), and an RSV LTR promoter, which stimulated expression of the TK mutants. The vector also contains a histidinol resistance gene for selection of transformants. Purified vector DNA of these constructs was used to transfect BHK tk- cells by electroporation. The transfectants were selected by resistance to histidinol and sorted using FACS analysis for GFP expression. Pools of transfectants were then assayed for sensitivity to GCV or ACV over a range of prodrug doses. […] Table VIII illustrates the IC50 values from Rat C6 kill curves with the SR11, SR26, and SR39 mutants.

[10] = system: BHK tk- cells transfected with pREP8D7:dualGFP expressing TK mutant SR39; assay: ACV kill curves of transfectant pools; format: cell-based, baby hamster; conditions: Mesocricetus auratus, Table VII
Source text: as §2

[11] = system: BHK tk- cells transfected with pREP8D7:dualGFP expressing TK mutant SR26; assay: ACV kill curves of transfectant pools; format: cell-based, baby hamster; conditions: Mesocricetus auratus, Table VII
Source text: as §2

[12] = system: BHK tk- cells transfected with pREP8D7:dualGFP expressing TK mutant 75; assay: ACV kill curves of transfectant pools; format: cell-based, baby hamster; conditions: Mesocricetus auratus, Table VII
Source text: as §2

[13] = system: BHK tk- cells transfected with pREP8D7:dualGFP expressing TK mutant SR11; assay: ACV kill curves of transfectant pools; format: cell-based, baby hamster; conditions: Mesocricetus auratus, Table VII
Source text: as §2

Chain of HSV-1 thymidine kinase mutant TKF 105 (Leu-170 to Ile) (P06478 whole entry L170I): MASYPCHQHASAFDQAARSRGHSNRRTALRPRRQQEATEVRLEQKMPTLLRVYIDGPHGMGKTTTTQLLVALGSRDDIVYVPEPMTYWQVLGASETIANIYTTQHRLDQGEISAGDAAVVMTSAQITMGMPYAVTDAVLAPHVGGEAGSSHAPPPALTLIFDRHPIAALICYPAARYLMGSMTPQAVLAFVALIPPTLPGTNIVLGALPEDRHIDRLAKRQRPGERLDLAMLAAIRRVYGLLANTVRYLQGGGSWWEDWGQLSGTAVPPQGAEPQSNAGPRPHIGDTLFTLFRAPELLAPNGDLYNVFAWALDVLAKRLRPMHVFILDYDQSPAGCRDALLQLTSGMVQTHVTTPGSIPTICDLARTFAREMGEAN

| Structure (SMILES) | colony formation on nucleoside analogue plates [1] | colony formation on nucleoside analogue plates [2] | colony formation on nucleoside analogue plates [3] | colony formation on nucleoside analogue plates [4] | colony formation on nucleoside analogue plates [5] | colony formation on nucleoside analogue plates [6] | colony formation on nucleoside analogue plates [7] | Km [8] [µM] | pIC50 [9] | pIC50 [10] | pIC50 [11] | pIC50 [12] | pIC50 [13] |
| --- | --- | --- | --- | --- | --- | --- | --- | --- | --- | --- | --- | --- | --- |
| Cc1cn([C@H]2C[C@H](N=[N+]=[N-])[C@@H](CO)O2)c(=O)[nH]c1=O [AZT, 3' azido-3' thymidine] | + ((+) indicates that fewer (<20% those observed with pMCC) and generally smaller (~50°,% smaller diameter) colonies were observed as compared to control plates) | + ((+) indicates that fewer (<20% those observed with pMCC) and generally smaller (~50°,% smaller diameter) colonies were observed as compared to control plates) | ++ | + ((+) indicates that fewer (<20% those observed with pMCC) and generally smaller (~50°,% smaller diameter) colonies were observed as compared to control plates) | - | ++ | ++ | 3.7 |  |  |  |  |  |
| Nc1nc2c(ncn2COCCO)c(=O)[nH]1 [acyclovir] | + ((+) indicates that fewer (<20% those observed with pMCC) and generally smaller (~50°,% smaller diameter) colonies were observed as compared to control plates) | + ((+) indicates that fewer (<20% those observed with pMCC) and generally smaller (~50°,% smaller diameter) colonies were observed as compared to control plates) | ++ | ++ | + ((+) indicates that fewer (<20% those observed with pMCC) and generally smaller (~50°,% smaller diameter) colonies were observed as compared to control plates) | ++ | ++ |  | 6.70 | 7.52 | 7.46 | 7.22 | 7.60 |
